How the values were obtained:
[1] = tested on: Human immunodeficiency virus 1; experiment: Antiviral activity against HIV-1 IIIB infected in human MT4 cells assessed as protection against virus-induced cytotoxicity after 5 days by MTT assay; type: functional, organism-based; conditions: Human immunodeficiency virus 1, IIIB, MT4, 120 h
[2] = Antiviral activity against HIV-2 ROD infected in human MT4 cells assessed as protection against virus-induced cytotoxicity incubated for 5 days by MTT assay; type: functional, cell-based; conditions: HIV-2, ISOLATE ROD, MT4, 120 h
[3] = tested on: Human immunodeficiency virus 1; experiment: Antiviral activity against HIV-1 IIIB harboring RT E138K mutant infected in human MT4 cells assessed as protection against virus-induced cytotoxicity incubated for 5 days by MTT assay; type: functional, organism-based; conditions: Human immunodeficiency virus 1, IIIB, MT4, 120 h
[4] = tested on: Human immunodeficiency virus 1; experiment: Antiviral activity against HIV-1 IIIB harboring RT F227L/V106A mutant infected in human MT4 cells assessed as protection against virus-induced cytotoxicity incubated for 5 days by MTT assay; type: functional, organism-based; conditions: Human immunodeficiency virus 1, IIIB, MT4, 120 h
[5] = tested on: Human immunodeficiency virus 1; experiment: Antiviral activity against HIV-1 IIIB harboring RT L100I mutant infected in human MT4 cells assessed as protection against virus-induced cytotoxicity incubated for 5 days by MTT assay; type: functional, organism-based; conditions: Human immunodeficiency virus 1, IIIB, MT4, 120 h
[6] = tested on: Human immunodeficiency virus 1; experiment: Antiviral activity against HIV-1 IIIB harboring RT Y188L mutant infected in human MT4 cells assessed as protection against virus-induced cytotoxicity incubated for 5 days by MTT assay; type: functional, organism-based; conditions: Human immunodeficiency virus 1, IIIB, MT4, 120 h
[7] = tested on: Human immunodeficiency virus 1; experiment: Antiviral activity against HIV-1 IIIB harboring RT Y181C mutant infected in human MT4 cells assessed as protection against virus-induced cytotoxicity incubated for 5 days by MTT assay; type: functional, organism-based; conditions: Human immunodeficiency virus 1, IIIB, MT4, 120 h
[8] = tested on: Human immunodeficiency virus 1; experiment: Antiviral activity against HIV-1 RES056 infected in human MT4 cells assessed as protection against virus-induced cytotoxicity incubated for 5 days by MTT assay; type: functional, organism-based; conditions: Human immunodeficiency virus 1, RES056, MT4, 120 h
[9] = tested on: Human immunodeficiency virus 1; experiment: Antiviral activity against HIV-1 IIIB harboring RT K103N mutant infected in human MT4 cells assessed as protection against virus-induced cytotoxicity incubated for 5 days by MTT assay; type: functional, organism-based; conditions: Human immunodeficiency virus 1, IIIB, MT4, 120 h
[10] = Cytotoxicity against human MT4 cells assessed as reduction in cell viability after 5 days by MTT assay; type: cell-based; conditions: time 5 day
[11] = biological target: Human immunodeficiency virus type 1 reverse transcriptase (Human immunodeficiency virus 1, UniProt Q72547); experiment: Inhibition of wild type HIV-1 reverse transcriptase assessed as reduction in biotin-dUTP incorporation in presence of template-primer incubated for 60 mins followed by transferring to streptavidin-coated plate and further incubation for 60 mins by ELISA
[12] = tested on: Human immunodeficiency virus 1; experiment: Potency index, ratio of Etravirine EC50 to test compound EC50 for antiviral activity against HIV-1 IIIB harboring RT E138K mutant infected in human MT4 cells by MTT assay; type: functional
[13] = tested on: Human immunodeficiency virus 1; experiment: Potency index, ratio of Etravirine EC50 to test compound EC50 for antiviral activity against HIV-1 IIIB infected in human MT4 cells by MTT assay; type: functional

SMILES | EC50 [1] [nM] | EC50 [2] [nM] | EC50 [3] [nM] | EC50 [4] [nM] | EC50 [5] [nM] | EC50 [6] [nM] | EC50 [7] [nM] | EC50 [8] [nM] | EC50 [9] [nM] | CC50 at 120 h [10] [nM] | IC50 [11] [nM] | Ratio EC50 [12] | Ratio EC50 [13]
Cc1cc(C#N)cc(C)c1Oc1nc(Nc2ccc(C#N)cc2)ncc1-c1ccc(C(F)(F)F)cc1 | 11.5 | > 35000 | 60.3 | 724 | 246 | 598 | 235 | 5460 | 25.4 | 35000 | – | – | –
Cc1cc(C#N)cc(C)c1Oc1nc(Nc2ccc(C#N)cc2)ncc1-c1ccncc1 | 2.5 | > 28000 | 5.9 | 41.3 | 28.3 | 30.9 | 24.1 | 718 | 4.2 | 28000 | 570 | 1.4 | 1.2
Cc1cc(C#N)cc(C)c1Oc1nc(Nc2ccc(C#N)cc2)ncc1-c1cccs1 | 4.9 | > 6430 | 12.9 | 269 | 21.1 | 57.5 | 36 | 1150 | 4.8 | 6430 | – | – | –
Cc1cc(C#N)cc(C)c1Oc1nc(Nc2ccc(C#N)cc2)ncc1-c1cccnc1 | 2.5 | > 13500 | 7.1 | 112 | 24.2 | 20 | 23.5 | 300 | 2.7 | 13500 | – | 1.4 | 1.2
Cc1cc(C#N)cc(C)c1Oc1nc(Nc2ccc(C#N)cc2)ncc1-c1cccc2ccccc12 | 934 | > 267000 | 5450 | 38400 | 2670 | 10600 | 21700 | 218000 | 1820 | > 267000 | – | – | –
Cc1cc(C#N)cc(C)c1Oc1nc(Nc2ccc(C#N)cc2)ncc1-c1ccc(F)cc1 | 6.2 | > 42700 | 18.5 | 526 | 159 | 102 | 113 | 5000 | 10.1 | 42700 | – | – | –
Cc1cc(C#N)cc(C)c1Oc1nc(Nc2ccc(C#N)cc2)ncc1-c1ccccc1 | 24.4 | > 31800 | 122 | 881 | 446 | 222 | 576 | 9130 | 63.5 | 31800 | – | – | –
Cc1cc(C#N)cc(C)c1Oc1nc(Nc2ccc(C#N)cc2)ncc1-c1ccc(-c2ccccc2)cc1 | 20.5 | > 253000 | 112 | 1220 | 195 | 1320 | 361 | 8520 | 29.5 | > 253000 | – | – | –
O=C1Nc2ccc(Cl)cc2[C@@](C#CC2CC2)(C(F)(F)F)O1 [EFAVIRENZ] | – | – | – | – | 30.8 | – | – | 273 | – | > 6340 | – | – | –
Cc1cc(C#N)cc(C)c1Oc1nc(Nc2ccc(C#N)cc2)nc(N)c1Br [ETRAVIRINE] | – | – | – | – | – | – | – | – | – | > 4590 | – | – | –
Cc1ccnc2c1NC(=O)c1cccnc1N2C1CC1 [NEVIRAPINE] | 133 | – | 115 | 4310 | 589 | 5350 | 3670 | 10700 | 2320 | > 15000 | – | – | –
Cc1cn([C@H]2C[C@H](N=[N+]=[N-])[C@@H](CO)O2)c(=O)[nH]c1=O [ZIDOVUDINE] | – | – | – | – | – | – | – | 20.1 | – | > 7480 | – | – | –

From ChEMBL document CHEMBL4819135, “Design, synthesis and anti-HIV evaluation of novel 5-substituted diarylpyrimidine derivatives as potent HIV-1 NNRTIs” (Bioorg Med Chem, 2021)
